# Measured values from PubChem BioAssay AID1845215 (Molecular Pharmacology Branch, DTP, NCI, 2023).
# “And” between values parts separate entries of the source, which are not always exact repeats. Identical values can stand only once.
# Test system: SW 1271 complex tumor spheroid viability
# Experiment: Anticancer human tumor SW 1271 cell line growth inhibition;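 also: spheroids exposed to agents for seven days before readout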;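 as to viability, T/C: percent of DMSO vehicle control luminescence so 100% = vehicle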
# Conditions: for viability, T/C: stronger effect = lower value
# Description: Multicellular complex tumor spheroid response to DNA repair inhibitors in combination with DNA-damaging drugs
# This study explores the anticancer activities of DNA-damaging drugs and inhibitors of DNA damage repair, both as single agents and in combinations. Complex tumor spheroids comprised of malignant cells, endothelial cells and mesenchymal stem cells served as an in vitro model for human solid tumors. This model system incorporates physiologically relevant features and patient-derived or established malignant cell lines with clinically relevant genetic alterations from many tumor types. Twenty-six patient-derived or established malignant cell lines were evaluated representing sarcoma, melanoma, small cell lung cancer (SCLC), non-small cell lung cancer (NSCLC), as well as bladder, ovarian and pancreatic cancers. The concentration ranges selected for each drug and investigational agent were based upon clinically achievable concentrations if the clinical Cmax of the agent was known.
# Compounds. The drugs and compounds olaparib (NSC753686), talazoparib (NSC767125), berzosertib (NSC777718), elimusertib (NSC800525), nedisertib (NSC802822), VX-984 (NSC792969), AZD-1390 (NSC803789), temozolomide (NSC362856), topotecan (NSC609699), trabectedin (NSC813783), staurosporine (NSC755774), and gemcitabine (NSC613327) were obtained from the National Cancer Institute (NCI) Developmental Therapeutics Program Chemical Repository. The FDA-approved anticancer drug set is available from the Developmental Therapeutics Program at https://dtp.cancer.gov/organization/dscb/obtaining/available_plates.htm. […] The stock solutions were prepared in dimethyl sulfoxide (DMSO, Sigma-Aldrich, St. Louis, MO, cat. D2650) at 400-fold the tested concentration and stored at -70 degrees C. Prior to their use, the stock solutions were diluted in fresh medium and the final DMSO concentration in the assay was 0.25% (v/v). All drugs and investigational agents were tested over a range starting from a high concentration at or near the clinical Cmax and decreasing in half-log increments. If the clinical Cmax for an agent had not been determined, the highest concentration tested was 10 microM.
# Cell Lines. The patient-derived cancer cell (PDC) lines: 156681-154-R-J1-PDC, 283228-195-R-J1-PDC, 287954-098-R-J1-PDC, 292921-168-R-J2-PDC, 349418-098-R-PDC, 425362-245-T-J1-PDC, 556581-035-R-J1-PDC, and BL0293-F563-PDC were received from the NCI Patient-Derived Models Repository (PDMR, https://pdmr.cancer.gov). The established cell lines HS-SY-2 (RRID:CVCL_8719), MPNST, and SYO-1 (RRID:CVCL_7146) were obtained from the Sloan Kettering Institute. The alveolar soft parts sarcoma cell line ASPS-1 (RRID:CVCL_S738) was established at the NCI and grown from internal seed stocks. The following established cell lines were purchased from the American Type Culture Collection (ATCC, Manassas, VA): G-401 (ATCC, cat. CRL-1441, RRID:CVCL_0270), SW982 (ATCC, cat. HTB-93, RRID:CVCL_1734), VA-ES-BJ (ATCC, cat. CRL-2138, RRID:CVCL_1785), NCI-H719 (ATCC, cat. CRL-5837, RRID:CVCL_1582), NCI-H196 (ATCC, cat. CRL-5823, RRID:CVCL_1509), NCI-H841 (ATCC, cat. CRL-5845, RRID:CVCL_1595), NCI-H1618 (ATCC, cat. CRL-5879, RRID:CVCL_1480), NCI-H1876 (ATCC, cat. CRL-5902, RRID:CVCL_1503), DMS 114 (ATCC, cat. CRL-2066; RRID:CVCL_1174), NCI-H211 (ATCC, cat. CRL-5824; RRID:CVCL_1529), and SW 1271 (ATCC, cat. CRL-2177, RRID:CVCL_1716). The small cell lung cancer cell line COR-L88 was purchased from Sigma-Aldrich (cat. 92031917-1VL, RRID:CVCL_1141). The non-small cell lung cancer cell lines NCI-H226 (RRID:CVCL_1544) and NCI-H322M (RRID:CVCL_1557) were established at the NCI and grown from internal seed stocks. Pooled donor human umbilical vein endothelial cells (HUVEC, Lonza, cat. CC-2519) and human mesenchymal stem cells (hMSC, Lonza, cat. PT-2501) were purchased from Lonza (Walkersville, MD).
# Cell Culture. All cells were maintained in an incubator at 37 degrees C and 5% CO2 with 95% humidity. […]
smiles,measurement,setting,value
COc1cc(C)[nH]c(=O)c1CN1CCc2c(Cl)cc(C(OC)C3COC3)c(Cl)c2C1=O (centres undefined) + CC[C@@]1(O)C(=O)OCc2c1cc1n(c2=O)Cc2cc3c(CN(C)C)c(O)ccc3nc2-1,IC50,"curve of first compound, second compound 0.003 µM",> 10 µM
same,IC50,"curve of first compound, second compound 0.00949 µM",> 10 µM
same,IC50,"curve of first compound, second compound 0.03 µM",< 0.0316 µM
same,IC50,"curve of first compound, second compound 0.0949 µM",< 0.0316 µM
same,IC50,"curve of first compound, second compound 0.3 µM",< 0.0316 µM
same,"viability, T/C","second compound 0.003 µM, first compound 0.0316 µM",90.4%
same,"viability, T/C","second compound 0.003 µM, first compound 0.1 µM",94.9%
same,"viability, T/C","second compound 0.003 µM, first compound 0.316 µM",93.3%
same,"viability, T/C","second compound 0.003 µM, first compound 1 µM",93.3%
same,"viability, T/C","second compound 0.003 µM, first compound 3.16 µM",85.3%
same,"viability, T/C","second compound 0.003 µM, first compound 10 µM",75.2%
same,"viability, T/C","second compound 0.00949 µM, first compound 0.0316 µM",73.6%
same,"viability, T/C","second compound 0.00949 µM, first compound 0.1 µM",70.4%
same,"viability, T/C","second compound 0.00949 µM, first compound 0.316 µM",69.6%
same,"viability, T/C","second compound 0.00949 µM, first compound 1 µM",57.3%
same,"viability, T/C","second compound 0.00949 µM, first compound 3.16 µM",64.9%
same,"viability, T/C","second compound 0.00949 µM, first compound 10 µM",56.5%
same,"viability, T/C","second compound 0.03 µM, first compound 0.0316 µM",29.6%
same,"viability, T/C","second compound 0.03 µM, first compound 0.1 µM",28.5%
same,"viability, T/C","second compound 0.03 µM, first compound 0.316 µM",34.3%
same,"viability, T/C","second compound 0.03 µM, first compound 1 µM",31.1%
same,"viability, T/C","second compound 0.03 µM, first compound 3.16 µM",32.4%
same,"viability, T/C","second compound 0.03 µM, first compound 10 µM",31%
same,"viability, T/C","second compound 0.0949 µM, first compound 0.0316 µM",28.8%
same,"viability, T/C","second compound 0.0949 µM, first compound 0.1 µM",30.5%
same,"viability, T/C","second compound 0.0949 µM, first compound 0.316 µM",29.5%
same,"viability, T/C","second compound 0.0949 µM, first compound 1 µM",32.5%
same,"viability, T/C","second compound 0.0949 µM, first compound 3.16 µM",33.1%
same,"viability, T/C","second compound 0.0949 µM, first compound 10 µM",23.5%
same,"viability, T/C","second compound 0.3 µM, first compound 0.0316 µM",14.2%
same,"viability, T/C","second compound 0.3 µM, first compound 0.1 µM",16.1%
same,"viability, T/C","second compound 0.3 µM, first compound 0.316 µM",18.8%
same,"viability, T/C","second compound 0.3 µM, first compound 1 µM",16.7%
same,"viability, T/C","second compound 0.3 µM, first compound 3.16 µM",13.7%
same,"viability, T/C","second compound 0.3 µM, first compound 10 µM",10.9%
O=C(c1cc(Cc2n[nH]c(=O)c3ccccc23)ccc1F)N1CCN(C(=O)C2CC2)CC1,"viability, T/C",compound 0.0949 µM,91.1% and 93% and 93.6%
same,"viability, T/C",compound 0.3 µM,77.1% and 81.2% and 80.7%
same,"viability, T/C",compound 0.949 µM,77% and 74.6% and 75.7%
same,"viability, T/C",compound 3 µM,41% and 45.6% and 42.4%
same,"viability, T/C",compound 9.49 µM,29.3% and 28.4% and 28.2%
same,"viability, T/C",compound 30 µM,24.2% (2×) and 16.6%
same,IC50,curve of compound,2.27 µM and 2.55 µM and 2.47 µM
Cc1cc(C)c(CNC(=O)c2cc(-c3ccc(CN4CCOCC4)cc3)cc3c2cnn3C2CCCC2)c(=O)[nH]1,"viability, T/C",compound 0.0316 µM,99.2% and 98.8% and 97.6%
same,"viability, T/C",compound 0.1 µM,95.9% and 99.6% and 92.9%
same,"viability, T/C",compound 0.316 µM,96.5% and 95.6% and 98.5%
same,"viability, T/C",compound 1 µM,94.5% and 91.5% and 91.4%
same,"viability, T/C",compound 3.16 µM,98.9% and 85.2% and 85.7%
same,"viability, T/C",compound 10 µM,85.4% and 73% and 66.3%
same,IC50,curve of compound,> 10 µM
